Test [1] has as its system phenylquinone induced writhings. Nature of the test: Phenylquinone writhing (50 per cent reduction in number of phenylquinone induced writhings), mouse. It counts as in vivo. The conditions noted are these: for ED50 / ED50 Agonist Activity, Phenylquinone Writhing, Mouse, SC: weights in terms of the free base. As for the experimental part: (§1) In vivo testing was conducted on the compounds designated herein as XVc (racemic mixture), d-XVc (dextrorotatory isomer), l-XVc (levorotatory isomer) and dl-XVd (see examples for structures) to determine their agonist and/or antagonist properties. The figures reported are the number of milligrams/kilogram of body weight of compound that produced an agonist or antagonist effect in 50% of the mice and rats so tested (ED50).
(§2) All the compounds were tested as the tartrates, but the weights reported in mg./kg. are corrected and reported in terms of the free base.
(§3) ^1 A 50 per cent reduction in number of phenylquinone induced writhings (Siegmund, E. A. et al., Proc. Soc. Biol. & Med. 95, 729; 1957).
In general terms: An intraperitoneal irritant provokes the stretching counted in writhing tests.

The test system is the same in test [2]. Briefly: Phenylquinone writhing (50 per cent reduction in number of phenylquinone induced writhings), rat. In kind it is in vivo. As to conditions: weights in terms of the free base; for ED50: Rattus norvegicus. As to the method: as §1, §2, §3
For test [3], the system named is Straub Tail induced by oxymorphone. Nature of the test: Antagonism of Straub Tail induced by oxymorphone in 50 per cent of mice. The conditions noted are these: oxymorphone 2 mg./kg. sc., weights in terms of the free base; for ED50: Mus musculus. In kind it is in vivo. As to the method:
as §1, §2
^2 Antagonism of Straub Tail induced by oxymorphone (2 mg./kg. sc.) in 50 per cent of mice.

The test system of test [4] is righting reflex loss induced by oxymorphone. Nature of the test: animal or person. It counts as in vivo. As to conditions: Rattus norvegicus, rats, oxymorphone 1.5 mg./kg. sc., weights in terms of the free base. As for the experimental part: as §1, §2
^3 Antagonism of righting reflex loss induced by oxymorphone (1.5 mg./kg. sc.) in 50 per cent of rats.

The test system of test [5] is analgesic effect induced by morphine. Briefly: animal or person. In kind it is in vivo. As to conditions: morphine 15 mg./kg. sc., weights in terms of the free base; for ED50: Rattus norvegicus. As for the experimental part: as §1, §2
Test [6] in a line: In vivo testing for agonist and/or antagonist properties (overall conclusion from Table I). Further details: species or system mice and rats. As to conditions: parenteral and oral administration. As to the method: as §1
[7] abbreviates: Mus musculus, sc, read-out: ED50 Agonist Activity, Phenylquinone Writhing, Mouse, SC.
[8] abbreviates: po, read-out: ED50 Agonist Activity, Phenylquinone Writhing, Rat, PO.
Setting [9] is: sc, read-out: ED50 Agonist Activity, Phenylquinone Writhing, Rat, SC.
[10] abbreviates: sc, read-out: ED50 Antagonist Activity, Oxymorphone Straub Tail, SC.
Setting [11] is: SC, read-out: ED50 Antagonist Activity, Oxymorphone Narcosis, SC.
Where [12] appears, read: po, read-out: ED50 Antagonist Activity, Morphine Antagonism Rat Tail Flick, PO.
Setting [13] is: sc, read-out: ED50 Antagonist Activity, Morphine Antagonism Rat Tail Flick, SC.

Structures can show the parent of a compound that is named as a salt. Where two headings read alike, the source gives them in different places. Bounds are passed on as bounds.

One may read the ED50 as the dose at which the effect has come halfway, by size or by number of responders.

Consider `C[C@@]12OCCC[C@@]13CCN(CC1CC1)[C@@H]2Cc1ccc(O)cc13` (racemic) [XVc tartrate, N-Cyclopropylmethyl-3-hydroxy-14β-methyl-8-oxamorphinan], for which the ED50 in test [1] (setting [7]) came out at 0.19 mg/kg; in test [2] (setting [8]), 4 mg/kg; in test [2] (setting [9]), 0.03 mg/kg; in test [3] (setting [10]), 0.61 mg/kg; in test [4] (setting [11]), 0.36 mg/kg; in test [5] (setting [12]), 7.3 mg/kg. The ED50 in test [5] (setting [13]) was 0.05 mg/kg.

Regarding `C=CCN1CC[C@]23c4c5ccc(O)c4O[C@H]2[C@@H](O)C=C[C@H]3[C@H]1C5` [Nalorphine, reference compound], the ED50 in test [3] (setting [10]) turned out to be 1.14 mg/kg.

In the case of `CC(C)=CCN1CCC2(C)c3cc(O)ccc3CC1C2C` (stereo not shown) [Pentazocine, reference compound], the results for the ED50 in test [4] (setting [11]) and in test [5] (setting [13]) were 10 mg/kg and 12.2 mg/kg, respectively.

As for `Cl.Oc1ccc2c(c1)[C@@]13CCCO[C@H]1[C@H](C2)N(CC1CC1)CC3` [l-XVk hydrochloride, l-N-cyclopropylmethyl-3-hydroxy-8-oxamorphinan hydrochloride], the ED50 in test [1] (setting [7]) came out at 0.013 mg/kg; in test [2] (setting [9]) it was 0.009 mg/kg; in test [3] (setting [10]), 0.2 mg/kg; in test [4] (setting [11]) it was 0.03 mg/kg; in test [5] (setting [13]), 0.97 mg/kg.

Turning to `C[C@@]12OCCC[C@@]13CCN(CC1CC1)[C@@H]2Cc1ccc(O)cc13` [l-XVc tartrate, N-Cyclopropylmethyl-3-hydroxy-14β-methyl-8-oxamorphinan], the ED50 in test [1] (Mus musculus, po, read-out: ED50 Agonist Activity, Phenylquinone Writhing, Mouse, PO) turned out to be 2.7 mg/kg; in test [2] (setting [8]), 1.3 mg/kg; in test [3] (po, read-out: ED50 Antagonist Activity, Oxymorphone Straub Tail, PO), 14.6 mg/kg; in test [4] (PO, read-out: ED50 Antagonist Activity, Oxymorphone Narcosis, PO) it was 1.25 mg/kg; in test [4] (setting [11]), 0.014 mg/kg; in test [5] (setting [12]), 6.3 mg/kg. For the same molecule, the “ED50 Agonist Activity, Phenylquinone Writhing, Mouse, SC” value in test [1] (SC) was 0.11 mg/kg. In addition, the “ED50 Agonist Activity, Phenylquinone Writhing, Rat, SC” value in test [2] (SC) was found to be 0.02 mg/kg. In addition, the “ED50 Antagonist Activity, Oxymorphone Straub Tail, SC” value in test [3] is listed as “≈ 0.2 mg./kg”. The “ED50 Antagonist Activity, Morphine Antagonism Rat Tail Flick, SC” value in test [5] amounted to 0.021 mg/kg. Further, the “agonist and antagonist activity” value in test [6] is “potent agonist and antagonist activity”.

On to `C[C@@]12OCCC[C@@]13CCN(CC1CC1)[C@@H]2Cc1ccc(O)cc13` [d-XVc tartrate, N-Cyclopropylmethyl-3-hydroxy-14β-methyl-8-oxamorphinan], for which the “ED50 Agonist Activity, Phenylquinone Writhing, Mouse, SC” value in test [1] (SC) was greater than 40 mg/kg. Also, in test [3], the “ED50 Antagonist Activity, Oxymorphone Straub Tail, SC” value is greater than 10 mg/kg. Besides, in test [5], the “ED50 Antagonist Activity, Morphine Antagonism Rat Tail Flick, SC” value is greater than 20 mg/kg.

Consider `C=CCN1CC[C@]23CCCC[C@H]2[C@H]1Cc1ccc(O)cc13` [Levallorphan, reference compound], for which the “dose response, Phenylquinone Writhing, Mouse, SC” value in test [1] (SC, remark under the ED50) is on record as “poor dose”. For the same molecule, the ED50 in test [1] (SC, read-out: ED50 Agonist Activity, Phenylquinone Writhing, Mouse, SC) is 26.3 mg/kg.

The record behind these values is patent US3959290A, “3,14-Substituted-8-oxamorphinans” (Bristol-Myers Company, priority 1974, dated 1976).
